The values that follow come from US20120020915A1, “Compounds and Methods for Treating Cancer and Diseases of the Central Nervous System” (QUEENS UNIVERSITY AT KINGSTON, priority 2007, published 2012).

Entries after “also recorded” stand apart in the source; their conditions may differ. Where only a bound is given, the exact number is not on record here.

The subject of series [1] is human pancreatic tumor cells. Description: Cell proliferation assay ([3H] thymidine incorporation), pancreatic tumor cells. It counts as cell-based. Conditions: 6.5 μM, 18 h. On the technique in general: Dividing cells build labelled thymidine or BrdU into new DNA.
Series [2] has as its system rat C6 glioma cells. Description: Cell proliferation assay ([3H] thymidine incorporation), C6 glioma cells. It counts as cell-based. Conditions: 6.5 μM, 18 h, hHO-1 transfected rat C6 glioma cells; hydrochloride. The protocol: Rat C6 glioma cells were cultivated in high glucose DMEM supplemented with 10% heat-inactivated fetal bovine serum, […] glutamine, and penicillin-streptomycin (50 U/mL and 50 μg/in L, respectively). […] All cultures were incubated at 37° C. in humidified 95% air-5% CO2.
Cells were seeded in 24-well plates at 1×10^6 cells/mL/well. Upon reaching >90% confluence, cells in each well were transiently transfected with 1.6 μg of plasmid DNA-Lipofectamine 2000 complex using Lipofectamine 2000 method according to manufacturer instructions (Invitrogen). 1.6 μg of plasmid DNA and 4 μL of Lipofectamine 2000 reagent were diluted individually in 100 μL opti-MEM I and incubated for 5 minutes at room temperature with gentle mixing. […]
Cell proliferation was determined by [^3H] thymidine incorporation: Cells were plated in 24-well plates at 10^6 cells/mL/well in complete medium. […] The cells were trypsinized and collected, air-dried on 21 mm glass microfibre filters (Whatman International Ltd., Maidstone, England) and analyzed by scintillation counting in a Wallac-Liquid Scintillator Counter (Perkin Elmer Life Sciences, Boston, Mass., USA). [^3H] thymidine incorporation was expressed as counts per min (cpm) per mL.

Series [3] can be described thus: Toxicity / tolerability of QC-56 in SCID mice (pilot study). It counts as in vivo.
Source text: IV.I (iii) Bioassay Species and strain: Mouse (Mus musculus); SCID, male Age at dosing initiation: 8 weeks old.
Once tumors became palpable, mice were randomized into experimental groups and the treatment was initiated.
Series [4] deals with HCT-116 colorectal carcinoma. Description: Colorectal carcinoma model HCT-116 in SCID mice, tumor growth delay. It counts as in vivo, Mouse (Mus musculus); male SCID. Conditions: dosage of 60 mg/kg. From the text:
(§1) Control groups received the vehicle alone.

Series [5] is classed as in vivo.
Source text: as §1

Series [6] deals with CD31-positive vessels in SKMEL-V+ tumors. Description: CD31 immunohistochemistry / microvessel density of SKMEL-V+ tumors. It counts as in vivo, Mouse (Mus musculus), male SCID. Conditions: QC-56 particularly at 60 mg/kg, hydrochloride, 60 mg/kg. The protocol:
Cell cultures were maintained in 5% CO2/95% air at 37° C. SKMEL-V (human melanoma cells). SKMEL-V cells were derived from SKMEL-24 cells (ATCC) by overexpression of mouse VEGF. […] Tumors were either snap frozen in liquid nitrogen or fixed in 10% buffered formalin and embedded in paraffin. […] BD PharMingen, San Diego, Calif.). […] Sections were rehydrated in PBS and then blocked with 5% normal goat serum for 1 h. The sections were then incubated overnight at 4° C. with CD31 antibody diluted 1:25 in 3% BSA-PBS. […] Paraffin-embedded material was used for Harris' hematoxylin. Microvessel density was quantified using a method described by Weidner et al ([…], and Folkman […]. Med, 1991; 324:1-8). Briefly, randomly vascularized areas were selected (hot spots) under 40× field and 100× fields. Then a 400× field was used to count microvessels in each of these areas. Single endothelial cells or clusters of endothelial cells with or without lumen were considered to be individual vessels. […] All slides were examined blindly with no prior knowledge of the treatment status.

For the molecule `Brc1ccc(CCC2(Cn3ccnc3)OCCO2)cc1.Cl` [QC-56, 1-((2-(2-(4-Bromophenyl)ethyl)-1,3-dioxolan-2-yl)methyl)-1H-imidazole hydrochloride], the “3H-thymidine incorporation, non-transfected cells” value in series [1] (compared to untreated cells, hydrochloride) is reported as “significantly attenuated ^3H-thymidine incorporation; also recorded: marked reduction in the rate of cellular proliferation”. Moreover, the “3H-thymidine incorporation, hHO-1 transfected cells” value in series [1] (hHO-1 transfected human pancreatic tumor cells) was “significantly attenuated the effects of hHO-1 transfection on ^3H-thymidine incorporation”; in series [2], “significantly attenuated the effects of hHO-1 transfection on ^3H-thymidine incorporation; also recorded: this rate of proliferation was attenuated”. Further, the “tolerability after multiple administrations” value in series [3] (50 mg/kg) is reported as “well tolerated”. Also, in series [3] (30 and 60 mg/kg, intraperitoneal, hydrochloride), the “tolerability at repeated doses” value is “well tolerated at repeated doses of 30 and 60 mg/kg with minor changes in body weights with no apparent toxicity; also recorded: well tolerated”. Also, the toxic single dose in series [3] (intraperitoneally, single dose) is on record as ≥ 100 mg/kg. The mortality entry in series [4] is “not”. For the same molecule, the “toxicity in the combination study” value in series [5] (QC-56 60 mg/kg ip, 4 cycles, chemotherapy drugs ip) is on record as “No apparent toxicity”. For the same molecule, the “tolerability at multiple doses up to 100 mg/kg” value in series [5] (multiple doses up to 100 mg/kg, intraperitoneal and intravenous routes, hydrochloride) is on record as “well tolerated with no apparent signs of toxicity; also recorded: well tolerated”. The “vessel count / tumor vascularization (CD31)” value in series [6] was “significant decrease in the size and number of blood vessels”.
